According to BindingDB's records for doi:10.1021/jm00172a010 (Centre De Recherches De Vitry, 1990):

Legend:
[1] = molecular target: T1, Polyunsaturated fatty acid 5-lipoxygenase (Rattus norvegicus, UniProt P12527); test: In vitro inhibitory activity against 5-Lipoxygenase in rat by Peritoneal 5-lipoxygenase assay
T1 sequence (P12527 whole entry): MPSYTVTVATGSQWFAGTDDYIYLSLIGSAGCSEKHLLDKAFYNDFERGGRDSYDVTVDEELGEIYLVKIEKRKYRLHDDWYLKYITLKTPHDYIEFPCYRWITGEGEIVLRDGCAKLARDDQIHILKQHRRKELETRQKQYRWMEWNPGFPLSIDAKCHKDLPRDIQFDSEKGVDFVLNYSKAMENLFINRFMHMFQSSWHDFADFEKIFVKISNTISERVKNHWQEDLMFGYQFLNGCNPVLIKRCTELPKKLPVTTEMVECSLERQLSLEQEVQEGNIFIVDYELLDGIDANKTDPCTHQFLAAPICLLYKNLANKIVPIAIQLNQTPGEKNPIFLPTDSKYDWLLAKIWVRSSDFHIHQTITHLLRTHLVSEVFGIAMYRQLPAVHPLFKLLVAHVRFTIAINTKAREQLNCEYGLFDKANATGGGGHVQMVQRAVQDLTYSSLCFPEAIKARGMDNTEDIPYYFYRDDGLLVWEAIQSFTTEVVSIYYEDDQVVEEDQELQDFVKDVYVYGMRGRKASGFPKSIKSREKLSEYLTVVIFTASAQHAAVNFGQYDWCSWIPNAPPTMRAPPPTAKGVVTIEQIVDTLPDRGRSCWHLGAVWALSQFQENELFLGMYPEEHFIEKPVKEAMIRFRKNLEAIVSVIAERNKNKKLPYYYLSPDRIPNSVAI

[2] = molecular target: T1, Polyunsaturated fatty acid 5-lipoxygenase; test: In vitro inhibition of 5-lipoxygenase in rat (peritoneal assay)

Row | IC50 [1] [µM] | IC50 [2] [µM] | SMILES
2 |  | 3 | CCOC(=O)C(=CCC(=O)C(=O)c1ccccc1)Sc1ccccc1
